Measurements taken from patent US10280163B2 (BeiGene, Ltd., priority 2015, dated 2019).
Read-outs that look alike come from different tables or passages of the source.

Tests used:
[1] = molecular target: T1, Recombinant TDO (Homo sapiens, UniProt P48775); assay: TDO enzymatic assay; type: biochemical
T1 construct: His tag (C); made in house; host or cells: E. coli
Method: Recombinant TDO was overexpressed and purified from E. coli cells with a C-terminal His tag. TDO enzymatic assay was performed using the same methodology as IDO1 enzymatic assay except that 100 nM TDO and 0.5 mM L-tryptophan (Km concentration) were used in the TDO assay.

[2] = molecular target: T2, cellular IDO1 in HeLa cells (Homo sapiens, UniProt P14902); assay: HeLa cell-based IDO1 Kyn (kynurenine) production assay; conditions: IFN-γ 100 ng/mL, 48 hours
T2 construct: endogenous in cells; host or cells: HeLa cells (American Type Tissue Culture Collection), induced with human recombinant IFN-γ
Method in brief: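 IFN-γ-induced HeLa cells (100 ng/mL) in phenol red-free DMEM with 0.4 mM L-Trp, compounds added together with IFN-γ, 48 h at 37 °C. Supernatant Kyn read at 480 nm after TCA precipitation and 4-(dimethylamino)benzaldehyde reaction. IC50 from four-parameter logistic fit.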

[3] = molecular target: T3, Recombinant IDO1 (Homo sapiens, UniProt P14902); assay: IDO1 enzymatic assay; type: biochemical
T3 construct: His tag (N); made in house; host or cells: E. coli
Method in brief: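 N-terminally His-tagged enzyme from E. coli (50 nM) was incubated with compound, 1.3 mM D-tryptophan, 5 mM ascorbate, 6.25 μM methylene blue and 0.4 mg/mL catalase in 50 mM potassium phosphate pH 7.5, 0.1% BSA for 1.5 h at 24° C. N′-formylkynurenine formation was followed at 321 nm for 1 h; IC50 from rate slopes.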

[4] = Table 2, 8-substituted imidazo[1,5-a]pyridines, 100 nM TDO, 0.5 mM L-tryptophan, read-out: Enzyme IC50 (nM) TDO
[5] = Table 2, 8-substituted imidazo[1,5-a]pyridines
[6] = Table 2, 8-substituted imidazo[1,5-a]pyridines, 50 nM IDO1, 1.3 mM D-tryptophan, read-out: Enzyme IC50 (nM) IDO1
[7] = Table 1, 5-substituted imidazo[1,5-a]pyridines, 100 nM TDO, 0.5 mM L-tryptophan, read-out: Enzyme IC50 (nM) TDO
[8] = Table 1, 5-substituted imidazo[1,5-a]pyridines
[9] = Table 1, 5-substituted imidazo[1,5-a]pyridines, 50 nM IDO1, 1.3 mM D-tryptophan, read-out: Enzyme IC50 (nM) IDO1

T1 sequence (P48775 whole entry): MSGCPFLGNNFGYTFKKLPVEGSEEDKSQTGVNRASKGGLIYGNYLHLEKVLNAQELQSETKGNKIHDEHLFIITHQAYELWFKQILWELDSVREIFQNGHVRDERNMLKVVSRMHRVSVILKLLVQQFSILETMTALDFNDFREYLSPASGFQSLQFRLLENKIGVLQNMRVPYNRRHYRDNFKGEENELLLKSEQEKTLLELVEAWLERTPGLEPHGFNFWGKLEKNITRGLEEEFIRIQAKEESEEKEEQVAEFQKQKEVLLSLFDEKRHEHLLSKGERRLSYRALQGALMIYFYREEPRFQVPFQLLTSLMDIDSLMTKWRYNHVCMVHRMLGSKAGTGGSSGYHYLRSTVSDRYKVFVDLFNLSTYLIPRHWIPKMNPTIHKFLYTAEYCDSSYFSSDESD
T3 sequence (P14902 whole entry): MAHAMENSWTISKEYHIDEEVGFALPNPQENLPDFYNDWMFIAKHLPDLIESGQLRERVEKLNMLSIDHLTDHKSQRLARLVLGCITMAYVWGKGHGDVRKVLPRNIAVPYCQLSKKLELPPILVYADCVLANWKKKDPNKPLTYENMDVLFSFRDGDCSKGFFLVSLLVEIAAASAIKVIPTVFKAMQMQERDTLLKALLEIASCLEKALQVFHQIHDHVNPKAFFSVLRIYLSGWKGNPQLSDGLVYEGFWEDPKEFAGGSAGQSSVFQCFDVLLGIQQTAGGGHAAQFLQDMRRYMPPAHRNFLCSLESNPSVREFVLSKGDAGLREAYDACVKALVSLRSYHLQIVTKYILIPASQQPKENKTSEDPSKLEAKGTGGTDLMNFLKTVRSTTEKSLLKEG
T2 sequence (P14902 whole entry): as above

Row | SMILES | IC50 [1, 7] [nM] | EC50 [2, 8] [nM] | IC50 [3, 9] [nM] | also measured
1 | OC(c1cc(Cl)cn2cncc12)C1CCCCC1 (stereo not drawn) [Example B014, (6-Chloroimidazo[1,5-a]pyridin-8-yl)(cyclohexyl)methanol] |  |  |  | IC50 [1, 4]: 100 nM; EC50 [2, 5]: > 10000 nM; IC50 [3, 6]: 180 nM
2 | OC(CCC1CCCCC1)c1cccn2cncc12 (stereo not drawn) [Example B008, 3-cyclohexyl-1-(imidazo[1,5-a]pyridin-8-yl)propan-1-ol] |  |  |  | IC50 [1, 4]: 17000 nM; EC50 [2, 5]: > 10000 nM; IC50 [3, 6]: 620 nM
3 | OC(c1cc(Cl)cc2cncn12)C1CCCC1 (stereo not drawn) [Example A103, (7-chloroimidazo[1,5-a]pyridin-5-yl)(cyclopentyl)methanol] | 22 | 1510 | 22 | 
4 | OC(c1c(Br)ccc2cncn12)C1CCCCC1 (stereo not drawn) [Example A118, (6-bromoimidazo[1,5-a]pyridin-5-yl)(cyclohexyl)methanol] | 5700 | 420 | 15 | 
5 | CC(C)c1ccn2cncc2c1C(O)CC1CCCCC1 (stereo not drawn) [Example B108, 2-Cyclohexyl-1-(7-isopropylimidazo[1,5-a]pyridin-8-yl)ethan-1-ol] |  |  |  | IC50 [1, 4]: 560 nM; EC50 [2, 5]: 389 nM; IC50 [3, 6]: 59 nM
6 | OC(CC1CCCCC1)c1c(Cl)ccc2cncn12 (single isomer, unassigned) [Example A117a] | 4100 | 92 | 11 | 
7 | Cc1ccn2cncc2c1C(O)C1CCCCC1 (single isomer, unassigned) [Example B102a] |  |  |  | IC50 [1, 4]: 150 nM; EC50 [2, 5]: 995 nM; IC50 [3, 6]: 15 nM
8 | OC(CC1CCCCC1)c1c(Br)ccc2cncn12 (single isomer, unassigned) [Example A119a] | 14000 | 66 | 14 | 
9 | OC(c1cc(C(F)(F)F)cc2cncn12)C1CCCCC1 (single isomer, unassigned) [Example A109a] | 97 | 2100 | 15 | 
10 | OC1CCCCC1C(O)c1c(C2CC2)ccc2cncn12 (stereo not drawn) [Example A141, 2-((6-cyclopropylimidazo[1,5-a]pyridin-5-yl)(hydroxy)methyl)cyclohexan-1-ol] | 3900 | 3150 | 51 | 
11 | OC(c1cccc2cncn12)C1CCCCC1 (stereo not drawn) [Example A001, Cyclohexyl(imidazo[1,5-a]pyridin-5-yl)methanol] | 260 | > 10000 | 150 | 
12 | OC(CC1CCCCC1)c1c(I)ccc2cncn12 (single isomer, unassigned) [Example A124a] | 8800 | 92 | 9 | 
13 | OC(c1c(F)c(Cl)cc2cncn12)C1CCCCC1 (stereo not drawn) [Example A156, (7-chloro-6-fluoroimidazo[1,5-a]pyridin-5-yl)(cyclohexyl)methanol] | 190 | 1650 | 48 | 
14 | OC(CC1CCCCC1)c1c(Br)ccc2cncn12 (stereo not drawn) [Example A119, 1-(6-bromoimidazo[1,5-a]pyridin-5-yl)-2-cyclohexylethan-1-ol] |  | 511 |  | IC50 ([1]; selectivity examples, read-out: enzymatic IC50 value to TDO): 12000 nM; IC50 ([3]; selectivity examples, read-out: enzymatic IC50 value to IDO1): 22 nM
15 | OC(c1cccc2cncn12)C1CCCCC1 (single isomer, unassigned) [Example A001a] | 610 | > 10000 | 41 | 
16 | OC(c1c(I)ccc2cncn12)C1CC1 (stereo not drawn) [Example A134, cyclopropyl(6-iodoimidazo[1,5-a]pyridin-5-yl)methanol] | 26000 | 8610 | 59 | 
17 | OC(c1cc(C(F)(F)F)cc2cncn12)C1CCCCC1 (stereo not drawn) [Example A109, cyclohexyl(7-(trifluoromethyl)imidazo[1,5-a]pyridin-5-yl)methanol] | 110 | 1540 | 49 | 
18 | OC(CC1CCCCC1)c1cc(C(F)(F)F)cc2cncn12 (stereo not drawn) [Example A114, 2-cyclohexyl-1-(7-(trifluoromethyl)imidazo[1,5-a]pyridin-5-yl)ethan-1-ol] | 420 |  | 260 | 
19 | OC(CC1CCCCC1)c1cccn2cncc12 (stereo not drawn) [Example B006, 2-Cyclohexyl-1-(imidazo[1,5-a]pyridin-8-yl)ethan-1-ol] |  |  |  | IC50 [1, 4]: 3300 nM; EC50 [2, 5]: > 10000 nM; IC50 [3, 6]: 330 nM
20 | Cc1ccn2cncc2c1C(O)C1CCCCC1 (stereo not drawn) [Example B102, cyclohexyl(7-methylimidazo[1,5-a]pyridin-8-yl)methanol] |  |  |  | IC50 [1, 4]: 360 nM; EC50 [2, 5]: 1560 nM; IC50 [3, 6]: 23 nM
21 | OC(CC1CCCCC1)c1c(Cl)ccc2cncn12 (single isomer, unassigned) [Example A117b] | 35000 | > 10000 | 1600 | 
22 | OC(c1ccccc1)c1cccn2cncc12 (stereo not drawn) [Example B004, Imidazo[1,5-a]pyridin-8-yl(phenyl)methanol] |  |  |  | IC50 [1, 4]: 3900 nM; IC50 [3, 6]: 17000 nM
23 | OC(c1c(Cl)c(C(F)(F)F)cc2cncn12)C1CCCCC1 (stereo not drawn) [Example A155, (6-chloro-7-(trifluoromethyl)imidazo[1,5-a]pyridin-5-Yl)(cyclohexyl)methanol] | 1600 |  | 1000 | 
24 | O[C@@H](c1cc(Cl)cc2cncn12)C1CCCCC1 [Example A101b, (R)-(7-chloroimidazo[1,5-a]pyridin-5-yl)(cyclohexyl)methanol] | 230 |  | 890 | 
25 | OC(c1cccn2cncc12)C1CCCC1 (stereo not drawn) [Example B002, Cyclopentyl(imidazo[1,5-a]pyridin-8-yl)methanol] |  |  |  | IC50 [1, 4]: 810 nM; IC50 [3, 6]: 2000 nM
26 | OC(c1cccn2cncc12)C1CCCCCC1 (stereo not drawn) [Example B005, Cycloheptyl(imidazo[1,5-a]pyridin-8-yl)methanol] |  |  |  | IC50 [1, 4]: 740 nM; IC50 [3, 6]: 990 nM

Second part, led by results:

Row | IC50 [1, 7] [nM] | EC50 [2, 8] [nM] | IC50 [3, 9] [nM] | SMILES | also measured
27 | 7900 | 556 | 19 | C#Cc1ccc2cncn2c1C(O)C1CCCCC1 (stereo not drawn) [Example A123, cyclohexyl(6-ethynylimidazo[1,5-a]pyridin-5-yl)methanol] | 
28 | 63 | 962 | 25 | OC(c1cc(Br)cc2cncn12)C1CCCCC1 (stereo not drawn) [Example A111, (7-bromoimidazo[1,5-a]pyridin-5-yl)(cyclohexyl)methanol] | 
29 | 37000 | > 10000 | 21000 | OC(c1c(C2CC2)ccc2cncn12)C1CCCCC1 (single isomer, unassigned) [Example A129b] | 
30 | 610 | 270 | 11 | OC(c1c(Cl)ccc2cncn12)C1CCCCC1 (single isomer, unassigned) [Example A116a] | 
31 | 260 | > 10000 | 540 | c1cc(CC2CCCCC2)n2cncc2c1 [Example A015, 5-(cyclohexylmethyl)imidazo[1,5-a]pyridine] | 
32 | 17000 | 7810 | 10000 | Cc1noc(C)c1-c1ccc2cncn2c1C(O)C1CCCCC1 (stereo not drawn) [Example A140, cyclohexyl(6-(3,5-dimethylisoxazol-4-yl)imidazo[1,5-a]pyridin-5-yl)methanol] | 
33 | 8400 | 657 | 430 | OC(c1c(Cl)c(Cl)c(Cl)c2cncn12)C1CCCCC1 (stereo not drawn) [Example A154, cyclohexyl(6,7,8-trichloroimidazo[1,5-a]pyridin-5-yl)methanol] | 
34 | 240 | 291 | 14 | OC(CC1CCCCC1)c1c(Cl)c(Cl)cc2cncn12 (single isomer, unassigned) [Example A144b] | 
35 | 95000 | > 10000 | 1100 | OC(CC1CCCCC1)c1c(I)ccc2cncn12 (single isomer, unassigned) [Example A124b] | 
36 | 1200 | > 10000 | 510 | OC(CC1CCCCC1)c1cc(Cl)cc2cncn12 (single isomer, unassigned) [Example A102b] | 
37 | 260 | > 10000 | 110 | OC(c1cccc2cncn12)C1CCCCCC1 (stereo not drawn) [Example A009, Cycloheptyl(imidazo[1,5-a]pyridin-5-yl)methanol] | 
38 | 13000 |  | 4500 | OC(CC1CCCCC1)c1c(C2CC2)ccc2cncn12 (single isomer, unassigned) [Example A139b] | 
39 | 75000 |  | 210 | OC(c1c(C(F)(F)F)ccc2cncn12)C1CC1 (stereo not drawn) [Example A132, cyclopropyl(6-(trifluoromethyl)imidazo[1,5-a]pyridin-5-yl)methanol] | 
40 | 200 |  | 130 | OC(c1c(Cl)c(Br)cc2cncn12)C1CC1 (stereo not drawn) [Example A150, (7-bromo-6-chloroimidazo[1,5-a]pyridin-5-yl)(cyclooropyl)methanol] | 
